Results taken from PMC6371759 (Chemical Science, 2018).

Molecular target: human serum albumin (HSA) (Homo sapiens, UniProt P02768)
Assay: tryptophan fluorescence quenching
Format: binding

Chain of human serum albumin (HSA) (P02768 25-609): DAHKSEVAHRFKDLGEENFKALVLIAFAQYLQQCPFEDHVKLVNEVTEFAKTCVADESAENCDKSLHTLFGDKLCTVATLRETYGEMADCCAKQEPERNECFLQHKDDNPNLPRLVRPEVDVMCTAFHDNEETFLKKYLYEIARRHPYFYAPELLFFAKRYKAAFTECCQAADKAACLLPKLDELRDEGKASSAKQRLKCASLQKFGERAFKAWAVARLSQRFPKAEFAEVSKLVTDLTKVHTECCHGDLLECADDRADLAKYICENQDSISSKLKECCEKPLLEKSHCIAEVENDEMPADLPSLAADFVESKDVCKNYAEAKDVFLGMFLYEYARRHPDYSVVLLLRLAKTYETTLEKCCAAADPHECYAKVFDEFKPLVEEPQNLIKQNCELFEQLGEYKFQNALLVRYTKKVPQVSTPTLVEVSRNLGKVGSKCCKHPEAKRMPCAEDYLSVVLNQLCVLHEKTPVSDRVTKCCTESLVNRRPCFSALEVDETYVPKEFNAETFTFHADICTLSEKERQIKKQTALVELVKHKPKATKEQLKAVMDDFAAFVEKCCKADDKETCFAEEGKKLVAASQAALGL

In the case of `C[C@]12CC[C@H]3[C@@H](CCC4=CC(=O)CC[C@@]43C)[C@@H]1CC[C@@H]2O` [testosterone], the Kd is reported as 363 ± 83 µM.
